# In article PMC11793105, “A kalihinol analog disrupts apicoplast function and vesicular trafficking in P. falciparum malaria” (Science (New York, N.Y.), 2024):
# Like-named read-outs stand apart in the source and are kept apart here.
# Tests used:
# [1] = test system: P. falciparum; experiment: Drug-drug interaction (fractional inhibitory concentration, isobologram) assay; assay type: cell-based, Plasmodium falciparum
# Source text: (§1) Fig. 2. […] Nuclei are stained with 4’,6-diamidino-2-phenylindole (DAPI; blue). […] (B) Dose-dependent interactions between MED6-189 (blue) and various antimalarials with known mechanisms of action (red). […] The regression line represents a nonlinear regression (variable slope with four parameters), with significant differences considered if P < 0.05. […] Isobologram curves are expected to be parallel to the diagonal for additive drug pairs, concave for synergistic drug pairs, and convex for antagonistic drug pairs. […] The analysis was performed using a two-way ANOVA, n = 3, with P < 0.05 significance.
# [2] = test system: P. falciparum metabolites; experiment: LC-MS metabolomic profiling (lipids and polar metabolites); assay type: cell-based, Plasmodium falciparum; conditions: treated parasites, second IEC (72 hours after treatment)
# [3] = test system: P. falciparum D10-ACP-GFP (MRA-568); experiment: SYBR Green I growth inhibition assay, D10-ACP-GFP; assay type: cell-based, Plasmodium falciparum; conditions: early-ring stage, 72 h exposure
# Protocol: Fig. 1. […] (B) SYBR Green–based dose response assays were conducted on early-ring stage parasites (6 hours after invasion). […] 3D7 WT (blue), NF54 (green), drug-resistant strains Dd2 (red), HB3 (black), W2 (gray), and D10-ACP-GFP (purple) lines (Sigmoidal, 4PL, X is concentration, n ≥ 3, nonlinear regression, CI: 95%). (C) Schematic diagram of the development of P. falciparum after two consecutive erythrocytic cycles. The time points at which MED6-189 was introduced are depicted in green. HPS, hours post synchronization. […] The images depict various developmental stages of the parasite’s intraerythrocytic life cycle. […]
# Fluorescence microscopy analyses were conducted using D10-ACP-GFP transgenic parasites, which express a fusion of the acyl carrier protein (ACP) with green fluorescent protein (GFP) in the parasite apicoplast ([25]). […]
# (§2) Detailed information on materials and methods is available in the supplementary materials. […] P. knowlesi assays were quantitatively measured by flow cytometry using SYBR Green I and Mitrotracker Deep Red, as previously described ([84], [85]), on a Beckman Coulter CytoFLEX. […]
# (§3) P. falciparum in vitro SYBR green fluorescence-based assays The anti-malarial activity of individual analogues were evaluated in-vitro against P. falciparum 3D7 (MRA-102, drug […]
# green-I based fluorescence assay. […]
# [4] = test system: P. falciparum NF54 gametocytes; experiment: Gametocyte development (sexual stage phenotype) assay; assay type: cell-based, Plasmodium falciparum; set-up: gametocytes after high dose: dose or concentration left out as unconfirmed
# Source text: Parasitemia and sexual stage phenotype analyses To understand the phenotypic effects of […]
# exposed to stress induced gametocyte induction followed by treatment with N-acetyl glucosamine (NAG; Sigma-Aldrich) supplemented media for 6-7 days to eliminate remaining asexual parasites.
# Upon first signs of gametocyte formation observed through giemsa stained smears (5-7 post stress […]
# with 3 biological replicates per condition. Culture media were replaced daily with reintroduction of the drug. Gametocyte parasitemia and proportion of the different sexual blood stages were determined by counting Giemsa-stained blood smears by light microscopy at every 24-hour time
# [5] = test system: P. falciparum Dd2 (MRA-156); experiment: SYBR Green I growth inhibition assay, Dd2; assay type: cell-based; conditions: Plasmodium falciparum
# Protocol: (§4) Fig. 1. […] (B) SYBR Green–based dose response assays were conducted on early-ring stage parasites (6 hours after invasion). […] 3D7 WT (blue), NF54 (green), drug-resistant strains Dd2 (red), HB3 (black), W2 (gray), and D10-ACP-GFP (purple) lines (Sigmoidal, 4PL, X is concentration, n ≥ 3, nonlinear regression, CI: 95%). (C) Schematic diagram of the development of P. falciparum after two consecutive erythrocytic cycles. The time points at which MED6-189 was introduced are depicted in green. HPS, hours post synchronization. […] The images depict various developmental stages of the parasite’s intraerythrocytic life cycle. Bordered images represent time points when drug was first introduced (n = 3 biological replicates, P < 0.05).
# as §2, §3
# (§5) green-I based fluorescence assay. Parasite growth rate and stages of development were determined via microscopy through Giemsa-stained smears of the cultures. […]
# [6] = test system: P. falciparum W2 (MRA-157, chloroquine resistant); experiment: SYBR Green I growth inhibition assay, W2; assay type: cell-based, Plasmodium falciparum; conditions: early-ring stage, 72 h exposure
# Protocol: as §4, §2, §3, §5
# [7] = test system: P. falciparum NF54 (MRA-1000); experiment: SYBR Green I growth inhibition assay, NF54; assay type: cell-based, Plasmodium falciparum; conditions: early-ring stage, 72 h exposure
# Protocol: as §4, §2, §3, §5
# [8] = test system: P. falciparum 3D7 parasites; experiment: Isopentenyl pyrophosphate (IPP) rescue assay; assay type: cell-based, Plasmodium falciparum; conditions: drug at IC80 for one IEC before IPP (200 μM)
# Source text: as §1
# IPP is a product of the MEP/DOXP pathway, and its supplementation reduces susceptibility to MEP inhibitors. […] Parasites were drugged at 80% inhibitory concentrations (IC80) for one IEC before IPP (200 μM) supplementation.
compound,measurement,setting,value
[C-]#[N+][C@]1(C)CC[C@H]2[C@@H]([C@@H](C(C)C)CC[C@]2(C)[N+]#[C-])[C@H]1O [MED6-189],FIC score,[1]; MED6-189 in combination with atovaquone (additive),0.91 ± 0.2
same,FIC score,[1]; MED6-189 in combination with chloroquine (additive),1.71 ± 0.4
same,increase in lysophosphatidylcholine (LPC) steady-state levels,[2],~3.5 fold
same,IC50,"[3]; Plasmodium falciparum, D10, 72 h",17 nM
same,IC50,[3],17.2 nM
same,(%) Gametocyte MED6-189 (average),"[4]; 300nM, day 1 post drug introduction",0%
same,(%) Gametocyte MED6-189 (average),"[4]; 300nM, day 2 post drug introduction",0.1035%
same,(%) Gametocyte MED6-189 (average),"[4]; 300nM, day 3 post drug introduction",0.55%
same,% Change of gametocytemia,"[4]; 300nM, day 4",100%
same,(%) Gametocyte MED6-189 (average),"[4]; 300nM, day 4 post drug introduction",1.5%
same,(%) Gametocyte MED6-189 (average),"[4]; 300nM, day 5 post drug introduction",3.175%
same,(%) Gametocyte MED6-189 (average),"[4]; 300nM, day 6 post drug introduction",2.102%
same,(%) Gametocyte MED6-189 (average),"[4]; 300nM, day 7 post drug introduction",1.15%
same,(%) Gametocyte MED6-189 (average),"[4]; 300nM, day 8 post drug introduction",1.35%
same,(%) Gametocyte MED6-189 (average),"[4]; 300nM, day 9 post drug introduction",1.25%
same,inhibition of early gametocyte development vs controls,"[4]; 300 nM, stage III: days 4 to 6",~ 62%
same,gametocytes after high dose,"[4]; early stages of gametocyte development, after 48 hours of drug treatment",no quantifiable gametocytes were observed
same,effect on mature-stage gametocytes,[4]; stage V,little to no effect
same,IC50,"[5]; DD2, 72 h",0.047 ± 0.007 µM
same,IC50,"[5]; DD2, read-out: IC50 (µM) P. falciparum (Dd2)",0.017 µM
same,IC50,"[6]; Plasmodium falciparum, W2, 72 h",27 ± 5 nM
same,IC50,[6],26.7 nM
same,IC50,"[7]; Plasmodium falciparum, NF54, 72 h",28 ± 5 nM
same,IC50,[7],27 nM
same,rescue of parasites by IPP supplementation,[8],can only be rescued by IPP for one additional cycle
